Changes are numbered by the printed parent chain. Like-named read-outs stand apart in the source and are kept apart here. One block for each compound: values may come before it.
Assays:
S1PR4 = molecular target: T1, S1PR4 (Homo sapiens, UniProt O95977); assay: S1PR4 internalization and recovery test in S1PR4-293T cells; assay type: cell-based; conditions: 1 µM, 37 °C, 1.5 hours; detected immediately, 5 hours or 20 hours after treatment
T1 construct: expressed in transfected cells; host or cells: 293T
T1 sequence (O95977 1-384): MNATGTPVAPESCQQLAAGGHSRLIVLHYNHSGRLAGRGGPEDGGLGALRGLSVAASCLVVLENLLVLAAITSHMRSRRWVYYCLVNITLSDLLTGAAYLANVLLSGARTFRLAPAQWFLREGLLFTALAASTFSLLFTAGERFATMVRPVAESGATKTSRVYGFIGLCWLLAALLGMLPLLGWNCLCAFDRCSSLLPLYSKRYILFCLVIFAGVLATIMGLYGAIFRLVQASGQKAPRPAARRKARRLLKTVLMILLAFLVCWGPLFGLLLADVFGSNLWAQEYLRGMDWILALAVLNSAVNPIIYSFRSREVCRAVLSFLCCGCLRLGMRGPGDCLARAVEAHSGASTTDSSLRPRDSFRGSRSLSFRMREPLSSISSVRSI
Description: Therefore, the recovery degree of S1PR4 after internalization caused by Compound 30 was evaluated, and the recovery effect following receptor internalization caused by Compound 30 was assessed in cells with high S1PR4 expression.

hS1P4-R-79C = molecular target: T2, hS1P4-R-79C (Homo sapiens, UniProt O95977, R79C); assay: Tango β-arrestin recruitment luciferase assay, Tango-hS1P4-R-79C-CHO (S1PR4 mutant); assay type: cell-based; conditions: 20 h drug treatment
T2 construct: expressed in transfected cells; host or cells: CHO
T2 sequence (O95977 1-384 R79C): T1 sequence (O95977 1-384) with R79C
Text: (§1) The Tango assay detects ligand-dependent GPCR activity through the interaction between β-arrestin and GPCRs. […] The NTEV fragment and the tetracycline transactivator (tTA), an artificial transcription factor, are fused at the C-terminus of the GPCR, while the CTEV fragment is fused to human β-arrestin 2. To enhance the stability of the interaction between GPCR and β-arrestin, a short sequence from the C-terminus of the human arginine vasopressin receptor 2 (V2 tail) is inserted between the GPCR and NTEV. The V2 tail contains multiple GRK phosphorylation sites, which strengthen β-arrestin binding upon phosphorylation. The CTEV fragment carries the stabile point mutation S219P and is truncated at residue 221 to remove the autoinhibitory C-terminal tail. Meanwhile, β-arrestin 2 is truncated to lack the entire C-terminal tail (residues 383-410 deleted). This truncation confers robust stimulus-dependent receptor desensitization, thereby improving detection sensitivity compared with wild-type β-arrestin 2. The UAS reporter construct consists of upstream activating sequence (UAS) elements, a minimal CMV promoter, and a tTA-dependent luciferase reporter gene. Therefore, constructing Tango cells requires the co-transfection of the above three plasmids into host cells. Upon GPCR activation and β-arrestin recruitment, the TEV enzyme at the β-arrestin terminus cleaves tTA from the GPCR C-terminus. The released tTA initiates tTA-dependent luciferase transcription, and compound activity is ultimately determined by measuring luminescence intensity.
(§2) • 1) Tango cell line from was digested from the culture dish respectively. After cell counting, the cells were plated at a density of 10,000 cells per well with […] into a white opaque 96-well plate (add 60 µL D'Hanks to the surrounding wells), and incubated overnight (20 h) in a 5% CO2 incubator at 37°C. The cell density will reach approximately 90% the next day. • 2) After 20 h, 30 µL of serially diluted compound solution was added to each well. The control group was supplemented with 30 µL F12K complete medium. Each group had three replicate wells. • 3) Samples were collected after 20 h of drug treatment.
(§3) (All compounds were tested at a final concentration of 45 µM, with 9 serial dilutions at 5-fold intervals. 1 µM BAF-312 was used as the positive control for S1PR1, and 25 µM BAF-312 was used as the positive control for S1PR4.

[1] = Pharmacokinetic property testing in rats; assay type: in vivo, SD rats; conditions: for Tmax: 3 per group
Text: In the structure-activity relationship discussion, the inventors obtained key compound 22. Based on compound 22, the polar head of the compound was modified as chiral pyrrolidine carboxylic acid, yielding selective S1PR4 agonists 30 and 67. We conducted pharmacokinetic property analyses on compounds 22, 30, and 67, respectively.

hS1P1 = molecular target: T3, hS1P1 (Homo sapiens, UniProt P21453); assay: Tango β-arrestin recruitment luciferase assay, Tango-hS1P1-CHO; assay type: cell-based
T3 construct: expressed in transfected cells; host or cells: CHO
Text: as §1, §2, §3

hS1P4 = molecular target: T4, hS1P4 (Homo sapiens, UniProt O95977); assay: Tango β-arrestin recruitment luciferase assay, Tango-hS1P4-CHO; assay type: cell-based; conditions: S1PR4; Tango-S1PR4-CHO-K1 cells; mean ± SD; read-out: EC50
T4 construct: expressed in transfected cells; host or cells: CHO
T4 sequence (O95977 1-384): T1 sequence (O95977 1-384)
Procedure, shortened: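 CHO Tango cells (receptor–V2 tail–TEV/tTA fusion, β-arrestin 2–TEV, UAS-luciferase reporter) plated overnight (20 h) at 37°C, then treated 20 h with compounds, top final 45 µM, 9 five-fold dilutions, triplicates. Luciferase luminescence read; BAF-312 positive control at 1 µM (S1PR1) or 25 µM (S1PR4).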

S1PR3 = molecular target: T5, S1PR3 (Homo sapiens, UniProt Q99500); assay: β-arrestin recruitment, PathHunter CHO-K1-S1PR3 cells; assay type: cell-based; conditions: mean ± SD, read-out: EC50
T5 construct: expressed in transfected cells

BALB/c mice [2] = assay: DSS-induced acute ulcerative colitis in mice (Example 6); assay type: in vivo
Description: From Day 0 to Day 14 of the experiment, the mice were weighed daily and their blood and stool conditions were observed, scored and recorded according to the following table (Table 1). Random grouping was performed on Day 1, and modeling was conducted from Day 1 to Day 7. All groups except the Control group were given 3.5% DSS water daily. Re-grouping was performed on Day 8. The Control group and Model group received no medication and were given tap water; the other groups were administered intragastrically with 1 mg/kg, 3 mg/kg, 9 mg/kg, and SASP (Sulfasalazine or Salicylazosulfapyridine) 500 mg/kg, respectively. On Day 15, blood and colon samples were collected, colon length was measured, and a 1-2 cm segment of the colon was fixed with formaldehyde.
(§4) • BALB/c mice, male, 20-22 g • Dextran sulfate sodium MW: 36,000-50,000 (DSS) • 30 1 mg/kg, 3 mg/kg, 9 mg/kg, SASP (500 mg/kg) indicators were observed.
(§5) (1) Clinical Symptom Score: The mice were weighed daily and their blood and stool were observed during the experiment for DAI scoring, which was graded and recorded according to the following table (Table 1).
(§6) (2) After the experiment, the colon was removed, its length measured and weight recorded. The colon-to-body weight index (colon weight/body weight × 100%) and colon swelling rate (colon weight/length × 100%) were calculated.
(§7) Colonic tissue approximately 1 cm from the anal margin (0.5 cm) and ileocecal region tissue were collected for histopathological examination. After H&E staining, the tissues were scored under single-blind conditions to evaluate the level of distal colon inflammation and tissue damage; scoring was performed according to the Ameho criteria and calculated as follows: • Score 0: No abnormal findings in the texture. • Score 1: Mild inflammatory infiltration of the mucosa and/or submucosa (mixed with neutrophils), submucosal edema, punctate mucosal erosion, accompanied by capillary proliferation. The muscularis mucosae is intact. • Score 2: Changes of Score 1 account for more than 50%. • Score 3: Obvious inflammatory infiltration and edema (neutrophils are often predominant); ulcers usually penetrate the muscularis mucosae to reach the submucosa. There is little inflammatory cell infiltration in the muscularis propria and no muscle necrosis. • Score 4: Changes of Score 3 account for more than 50%. • Score 5: Large confluent ulcers with coagulative necrosis, massive neutrophil infiltration at the margins and few monocytes. Necrotic tissue penetrates the muscularis propria. • Score 6: Changes of Score 5 account for more than 50% of the specimen.
The fence function of Occludin separates the apical and basolateral sides of the epithelial cell plasma membrane, restricting the free flow of lipids on the cell membrane, facilitating the formation of cell polarity, maintaining the impermeability and rigidity of the intestinal mucosa, and preventing the entry of pathogenic microorganisms. The barrier function of Occludin can regulate the transport of small molecules and maintain tissue homeostasis. […]

BALB/c mice [3] = assay: DSS-induced chronic ulcerative colitis in mice (Example 6); assay type: in vivo
Text: BALB/c mice were acclimatized for 7 days before the experiment. From Day 7 to Day 50 of the experiment, the mice were weighed daily and their blood and stool conditions were observed, scored and recorded according to the following table (Table 1). After random grouping, all groups except the Control group were given free access to 2-3% DSS solution for modeling from Day 7 to Day 14, while the Control group received normal drinking water during the same period. One cycle lasted 14 days and was repeated 3 times. Re-grouping was performed at the start of the final cycle to initiate drug administration. The Control group and Model group received no drug but the same solvent. The other groups were intragastrically administered 1 mg/kg, 3 mg/kg, 9 mg/kg, and SASP 500 mg/kg respectively. On Day 45, blood and colon samples were collected, colon length was measured, and a 1-2 cm colon segment was fixed with formaldehyde.
as §4, §5, §6, §7
The fence function of Occludin separates the apical and basolateral sides of the epithelial cell plasma membrane, restricting the free flow of lipids on the cell membrane, facilitating the formation of cell polarity, maintaining the impermeability and rigidity of the intestinal mucosa, and preventing the entry of pathogenic microorganisms. The barrier function of Occludin can regulate the transport of small molecules and maintain tissue homeostasis. The expression and distribution of related proteins are detected by immunohistochemistry.
During modeling, the body weight of mice in the control group increased steadily. In the model group, during the first modeling period, mice were given 3% DSS drinking water ad libitum for 7 days, followed by tap water ad libitum for 7 days. On Day 4 of modeling, the body weight of mice began to decrease generally, reaching the lowest point on Day 8, and then started to rise. During the second modeling period, mice were given 2% DSS drinking water ad libitum for 7 days, followed by tap water ad libitum for 7 days. […]

[4] = Sprague-Dawley, rat, in vivo, IV (1 mg/kg), male SD rats
[5] = Sprague-Dawley, rat, in vivo, PO (10 mg/kg), male SD rats
[6] = β-arrestin recruitment, 20 h drug treatment, top 45 µM, 9 serial 5-fold dilutions, positive control 1 µM BAF-312, read-out: Tango-hS1P1-CHO EC50

T3 sequence (P21453 whole entry): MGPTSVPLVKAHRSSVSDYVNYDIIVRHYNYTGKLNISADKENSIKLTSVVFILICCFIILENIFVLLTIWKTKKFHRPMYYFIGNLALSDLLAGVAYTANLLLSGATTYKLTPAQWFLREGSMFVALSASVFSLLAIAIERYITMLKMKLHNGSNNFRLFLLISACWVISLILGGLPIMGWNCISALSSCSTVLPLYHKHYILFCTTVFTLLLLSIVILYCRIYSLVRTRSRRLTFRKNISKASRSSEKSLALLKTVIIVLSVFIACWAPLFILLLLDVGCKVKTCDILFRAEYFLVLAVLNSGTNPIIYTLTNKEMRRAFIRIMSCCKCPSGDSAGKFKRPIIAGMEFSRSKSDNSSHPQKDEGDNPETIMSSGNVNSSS
T5 sequence (Q99500 whole entry, species assumed): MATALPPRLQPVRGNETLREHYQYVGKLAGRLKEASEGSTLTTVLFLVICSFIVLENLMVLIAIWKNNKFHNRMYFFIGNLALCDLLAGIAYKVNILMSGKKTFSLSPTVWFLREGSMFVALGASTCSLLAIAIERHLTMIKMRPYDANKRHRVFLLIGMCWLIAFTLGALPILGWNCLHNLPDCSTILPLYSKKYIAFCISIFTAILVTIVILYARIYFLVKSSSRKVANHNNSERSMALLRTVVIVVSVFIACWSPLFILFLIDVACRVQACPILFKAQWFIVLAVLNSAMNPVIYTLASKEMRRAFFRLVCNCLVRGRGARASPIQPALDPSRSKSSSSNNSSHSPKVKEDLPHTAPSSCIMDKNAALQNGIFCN

S1PR4 internalization (expression of S1PR4 receptor on the cell surface) (S1PR4): cannot induce S1PR4 internalization
SMILES: CCc1cc(/C(C)=N/OCc2ccc(C3CCCCC3)c(C(F)(F)F)c2)ccc1CN1CC(C(=O)O)C1 [BAF312]

EC50 (hS1P4-R-79C): 27 nM
CL_obs ([1]; IV (1 mg/kg), male SD rats): 34.7 ± 3.17 mL/min/kg
Vss_obs ([1]; IV (1 mg/kg), male SD rats): 0.88 ± 0.07 L/kg
CL_obs ([1]; PO (10 mg/kg), male SD rats): 148 ± 64.3 mL/min/kg
Vss_obs ([1]; PO (10 mg/kg), male SD rats): 27.73 ± 16.85 L/kg
AUC(0-t) [1, 4]: 476 ± 43.6 ng·h/mL
Cmax [1, 4]: 995 ± 53.2 ng/mL
half-life [1, 4]: 25.2 ± 1.8 min
Tmax [1, 4]: 4.8 min
AUC(0-t) [1, 5]: 1120 ± 400 ng·h/mL
Cmax [1, 5]: 544 ± 221 ng/mL
half-life [1, 5]: 130 ± 57.6 min
Tmax [1, 5]: 49.8 ± 17.4 min
bioavailability ([1]; male, Sprague-Dawley, rat, in vivo, oral, 10 mg/kg): 23.5%
F (%) ([1]; oral bioavailability, PO 10 mg/kg vs IV 1 mg/kg, male SD rats): 23.5%
SMILES: CCc1cc(/C(C)=N/OCc2ccc(-c3ccccc3)c(C)c2)ccc1CN1CC(C(=O)O)C1 [Compound 22, (E)-1-(2-ethyl-4-(1-((2-methyl-[1,1'-biphenyl]-4-yl)methoxy)imino)ethyl)azetidine-3-carboxylic acid]

EC50 (hS1P4-R-79C): 87.2 nM
EC50 (hS1P1; [6]): 169 nM
SMILES: CCc1cc(/C(C)=N/OCc2ccc(-c3ccccc3)c(C)c2)ccc1CN1CC[C@@H](C(=O)O)C1 [Compound 29]

EC50 (hS1P4-R-79C): 73.1 nM
EC50 (hS1P1; [6]): 128 nM
SMILES: CCc1cc(/C(C)=N/OCc2ccc(-c3ccccc3)c(C)c2)ccc1CNCCC(=O)O [Compound 31]

EC50 (hS1P4): 100 ± 21.9 nM
EC50 (S1PR3): 20.6 ± 3.37 nM
EC50 (hS1P1; S1PR1, Tango-S1PR1-CHO-K1 cells, mean ± SD, read-out: EC50): 8.52 ± 1.06 nM
SMILES: CCCCCCCCCCCCC/C=C/[C@@H](O)[C@@H](N)COP(=O)(O)O [Compound S1P, Sphingosine-1-phosphate, reference compound]
S1PR4 internalization (expression of S1PR4 receptor on the cell surface) (S1PR4): can induce S1PR4 internalization, with receptor expression recovering after 20 hours

SMILES: O=C(O)c1cc(/N=N/c2ccc(S(=O)(=O)Nc3ccccn3)cc2)ccc1O [SASP, Sulfasalazine, reference compound]
body weight recovery (BALB/c mice [2]; 30 at 3 mg/kg, SASP at 500 mg/kg, vs model group): faster body weight recovery with a greater rebound amplitude
daily DAI score (BALB/c mice [2]; 30 treatment groups, SASP 500 mg/kg, vs model group): decreased more rapidly
colon pathological changes (H&E staining) (BALB/c mice [2]; SASP 500 mg/kg): still had inflammatory cell infiltration, but to a lesser extent than the Model group
survival rate (BALB/c mice [2]; SASP 500 mg/kg intragastric from Day 8, 8 mice, model group 75%): 87.5%
Occludin expression in colonic mucosa (immunohistochemistry) (BALB/c mice [2]; vs Model group): the expression of Occludin was increased
daily DAI score (BALB/c mice [3]; 30 treatment group, SASP 500 mg/kg, vs model group): decreased more rapidly
body weight recovery (BALB/c mice [3]; 30 treatment groups (1, 3, 9 mg/kg), SASP 500 mg/kg, vs model group): recovered rapidly and increased substantially
colon pathological changes (H&E staining) (BALB/c mice [3]; SASP 500 mg/kg): inflammatory cell infiltration, but to a lesser extent than the Model group
Occludin expression in colonic mucosa (immunohistochemistry) (BALB/c mice [3]; vs Model group): the expression of Occludin was increased

Reference: patent publication EP4790048A1, “S1PR4 REGULATOR COMPOUND FOR AUTOIMMUNE DISEASE TREATMENT AND APPLICATION THEREOF” (Shengyuan Zetong (Shanghai) Pharmaceutical Co., Ltd, priority 2023, dated 2025)
